From ChEMBL document CHEMBL2074320, “Polyspecific organic anion transporting polypeptides mediate hepatic uptake of amphipathic type II organic cations” (J Pharmacol Exp Ther, 1999)

Key:
[1] = target: T1, Solute carrier organic anion transporter family member 1A2 (Homo sapiens, UniProt P46721); experiment: (§1) TP_TRANSPORTER: uptake in Xenopus laevis oocytes; assay type: functional, cell-based, Oocyte; settings: oocyte
T1 sequence (P46721 whole entry): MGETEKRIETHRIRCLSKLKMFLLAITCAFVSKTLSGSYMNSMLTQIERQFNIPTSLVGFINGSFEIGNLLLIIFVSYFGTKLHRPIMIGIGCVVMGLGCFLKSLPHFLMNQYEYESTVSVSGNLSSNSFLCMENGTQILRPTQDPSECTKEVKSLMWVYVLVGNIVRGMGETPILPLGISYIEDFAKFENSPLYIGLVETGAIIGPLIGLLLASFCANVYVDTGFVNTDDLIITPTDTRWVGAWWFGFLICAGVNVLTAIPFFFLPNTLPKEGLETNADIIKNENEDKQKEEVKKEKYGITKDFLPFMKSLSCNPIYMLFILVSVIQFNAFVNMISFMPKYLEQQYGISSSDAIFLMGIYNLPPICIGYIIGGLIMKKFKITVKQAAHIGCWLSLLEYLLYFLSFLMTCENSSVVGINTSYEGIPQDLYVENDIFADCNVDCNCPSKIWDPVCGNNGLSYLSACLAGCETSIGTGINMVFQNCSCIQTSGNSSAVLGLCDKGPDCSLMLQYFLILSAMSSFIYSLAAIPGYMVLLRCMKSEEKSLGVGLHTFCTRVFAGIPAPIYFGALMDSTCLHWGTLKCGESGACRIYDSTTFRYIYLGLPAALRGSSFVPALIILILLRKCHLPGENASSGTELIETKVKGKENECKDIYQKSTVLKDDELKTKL

[2] = target: T2, Solute carrier organic anion transporter family member 1A1 (Rattus norvegicus, UniProt P46720); experiment: as §1; assay type: functional, cell-based; settings: oocyte
T2 sequence (P46720 whole entry): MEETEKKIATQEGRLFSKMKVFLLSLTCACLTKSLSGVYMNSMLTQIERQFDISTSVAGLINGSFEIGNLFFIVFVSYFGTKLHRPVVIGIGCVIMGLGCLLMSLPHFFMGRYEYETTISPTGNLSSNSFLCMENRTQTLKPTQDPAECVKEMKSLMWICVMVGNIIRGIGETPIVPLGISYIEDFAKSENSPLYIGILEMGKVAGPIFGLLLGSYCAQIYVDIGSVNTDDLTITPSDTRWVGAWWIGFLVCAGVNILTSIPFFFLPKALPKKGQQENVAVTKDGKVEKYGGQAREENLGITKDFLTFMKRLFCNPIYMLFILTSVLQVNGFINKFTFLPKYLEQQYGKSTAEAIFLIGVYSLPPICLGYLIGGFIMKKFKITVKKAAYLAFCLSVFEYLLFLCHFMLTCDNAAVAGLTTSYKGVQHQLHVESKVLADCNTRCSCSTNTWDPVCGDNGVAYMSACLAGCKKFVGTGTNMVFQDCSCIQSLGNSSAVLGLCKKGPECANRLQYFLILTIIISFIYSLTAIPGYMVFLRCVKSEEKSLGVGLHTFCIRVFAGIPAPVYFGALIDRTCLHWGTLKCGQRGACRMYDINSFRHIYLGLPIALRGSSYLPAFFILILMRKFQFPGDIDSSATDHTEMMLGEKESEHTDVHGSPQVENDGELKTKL

[3] = target: T3, Solute carrier organic anion transporter family member 1A4 (Rattus norvegicus, UniProt O35913); experiment: as §1; assay type: functional, cell-based; settings: oocyte
T3 sequence (O35913 whole entry): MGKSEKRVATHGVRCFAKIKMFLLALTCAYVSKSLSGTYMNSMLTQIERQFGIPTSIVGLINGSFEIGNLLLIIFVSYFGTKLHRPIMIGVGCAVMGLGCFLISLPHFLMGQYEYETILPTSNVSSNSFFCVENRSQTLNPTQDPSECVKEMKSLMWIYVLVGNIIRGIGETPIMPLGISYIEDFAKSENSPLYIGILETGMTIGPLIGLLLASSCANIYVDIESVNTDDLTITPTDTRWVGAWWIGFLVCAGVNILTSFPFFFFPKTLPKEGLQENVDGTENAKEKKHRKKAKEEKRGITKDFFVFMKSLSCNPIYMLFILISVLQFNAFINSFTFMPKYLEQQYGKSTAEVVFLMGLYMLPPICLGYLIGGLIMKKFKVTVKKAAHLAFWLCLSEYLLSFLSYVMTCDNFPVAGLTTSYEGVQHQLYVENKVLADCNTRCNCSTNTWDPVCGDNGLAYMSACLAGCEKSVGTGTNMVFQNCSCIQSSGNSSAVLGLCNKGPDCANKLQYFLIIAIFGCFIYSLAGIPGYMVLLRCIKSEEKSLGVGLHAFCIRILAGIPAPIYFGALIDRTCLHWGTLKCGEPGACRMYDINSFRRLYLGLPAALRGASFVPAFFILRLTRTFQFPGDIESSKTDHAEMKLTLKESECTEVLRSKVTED

[4] = target: T4, Solute carrier organic anion transporter family member 1A2 (OATP1A2) (Homo sapiens, UniProt P46721); experiment: as §1; assay type: functional, cell-based, Oocyte; settings: Xenopus laevis oocytes expressing the transporter
T4 sequence (P46721 whole entry): T1 sequence (P46721 whole entry)

| Compound | Activity [1] | Activity [2] | Activity [3] | Km [4] |
| --- | --- | --- | --- | --- |
| CCC1C[N+]2(CCCC3(C)N=N3)C3CC45c6ccccc6N(C)C4C2CC1C3C5O (configuration not stated) | substrate [+] | substrate [+] | substrate [+] | – |
| C=C[C@H]1C[N+]2(C)CC[C@H]1C[C@H]2[C@H](O)c1ccnc2ccc(OC)cc12 | – | substrate [+] | is not a substrate [-] | 5.1 µM |
| C=C[C@H]1C[N+]2(C)CC[C@H]1C[C@@H]2[C@@H](O)c1ccnc2ccc(OC)cc12 | – | is not a substrate [-] | is not a substrate [-] | 25.6 µM |
| C=CC[N+]1([C@H]2C[C@H]3[C@@H]4CC[C@H]5C[C@H](O)[C@@H](N6CCOCC6)C[C@]5(C)[C@H]4CC[C@]3(C)[C@H]2OC(C)=O)CCCC1 [ROCURONIUM] | substrate [+] | substrate [+] | substrate [+] | – |
